The subject of assay [1] is Endogenous Total ATXN3 (tATXN3) Protein. Briefly: Endogenous Total ATXN3 (tATXN3) Protein Assay (MSD immunoassay of cell lysates). The note with it: cells incubated with compound 48 h; 7-point concentration curve; MSD plate readout. Format: cell-based. Here is the method:
Meso Scale Discovery (MSD) 96-well or 384-well plates were coated overnight at 4° C. with Ataxin 3 mouse monoclonal antibody (Invitrogen, MA3-082) at a concentration of […] in PBS (30 μL per well). Plates were then washed three times with 300 μL wash buffer (0.05% TWEEN®-20, polyethylene glycol sorbitan monolaurate, in PBS) and blocked (Meso Scale Diagnostics, R93BA-1; 5% BSA in PBS) for 2 h at room temperature with rotational shaking and then washed three times with wash buffer.
(§1) Test compounds were serially diluted 3.16-fold in 100% DMSO to generate a 7-point concentration curve. Aliquots of 0.5 μL of diluted compounds were transferred to a 96-well flat bottom plate by a liquid handler. An aliquot of 0.5 μL DMSO was also transferred to separate wells and used as controls. Duplicate samples were set up for each compound concentration and for the DMSO control.
Cells were thawed and incubated in cell culture media (DMEM, 10% FBS, and 1% antibiotic cocktail) for 72 h. Cells were trypsinized, counted, and re-suspended to a concentration of 100,000 cells/mL in cell culture media. A 100 μL aliquot of the cell suspensions were plated at 10,000 cells per well in the compound containing 96 well microtiter plate and incubated for in a cell culture incubator (37° C., 5% CO2, 100% relative humidity). After 48 h, the medium was removed and 50-100 μL of lysis buffer (Meso Scale Diagnostics, R60TX-2) containing 1× halt protease inhibitor cocktail of (Thermo Scientific, Halt™ Protease Inhibitor Cocktail, 78430) per well was added to cells to provide a “cell lysate”. The plate was placed on a shaker at 4° C. for 30 minutes, then stored at −80° C.
Cell lysate samples (25 μL) were transferred to the antibody-coated MSD plate and incubated overnight at 4° C. After removal of the lysates, the plate was washed three times with wash buffer, and 25 μL of Ataxin 3 recombinant rabbit monoclonal antibody (Invitrogen, #702788) secondary antibody (diluted to 0.25 μg/mL in 0.05% TWEEN®-20 in blocking buffer) was added to each well and incubated with shaking for 1-2 h at room temperature. Following incubation with the secondary antibody, the wells were rinsed with wash buffer and then 25 μL of Anti Rabbit Antibody Goat SULFO-TAG Labeled (Meso Scale Diagnostics, R32AB-1) detecting antibody (diluted to 0.25 μg/mL in 0.05% TWEEN®-20 in blocking buffer) was added to each well and incubated with shaking for 1 h at room temperature. After rinsing three times with wash buffer, 150 μL of Read Buffer T with surfactant (tris-based buffer containing tripropylamine, Meso Scale Diagnostics, R92TC-1) were added to each empty well, and the plate was imaged on a SI 6000 imager (MSD) according to manufacturers' instructions provided for 96- or 384-well plates.

For assay [2], the system named is ATXN3 Pre-mRNA (exon 4 skipping). As to the kind of experiment: RT-qPCR Assay to Quantify Exon 4 Skipping in ATXN3 Pre-mRNA in Cells. Format: cell-based. The note with it: cells incubated with compound 24 h, normalised to GAPDH, 7-point concentration curve. How it is done: as §1
Cells were thawed and incubated in cell culture media (DMEM, 10% FBS, and 1% antibiotic cocktail) for 72 h. Cells were trypsinized, counted, and re-suspended to a concentration of 100,000 cells/mL in cell culture media. A 100 μL aliquot of the cell suspensions were plated at 10,000 cells per well in the compound containing 96 well microtiter plate and incubated for in a cell culture incubator (37° C., 5% CO2, 100% relative humidity).
After 24 h, media was aspirated from the cells and 50 μL of the RCL2 lysis buffer (10 mM Tris-HCL pH 7.4, 150 mM NaCl, 0.33% IGEPAL® CA-630) was added to each well and incubated at room temperature for 1 min. Chilled nuclease free water (50 μL per well) was added and the plates were immediately transferred on ice. After 1 min on ice, plates were frozen at −80° C. overnight.
Preparation of RT-qPCR Reaction Mixture:
An aliquot of 2 μL/well of the cell lysates was transferred using the liquid handler to the Armadillo 384-Well PCR plate containing 8 μL/well of the RT-qPCR reaction mixture that was prepared as detailed above. The plates were then sealed with MicroAmp™ Optical Adhesive Film followed by spinning down for 1 min and placed in the CFX384 thermocycler (BioRad).
The RT-qPCR was carried out at the following temperatures for the indicated time: • Step 1: 48° C. (30 min) • Step 2: 95° C. (10 min) • Step 3: 95° C. (15 sec) • Step 4: 60° C. (1 min); then, repeated Steps 3 and 4 for a total of 40 cycles.
The percent exon 4 skipping was calculated for each dose of compound treatment using Equations 1 and 2.
Data were fit to a dose response curve and the IC50 was interpolated using XLfit® statistical and curve fitting package.
An IC50 value between >2.0 μM and ≤3.0 μM is indicated by one star (*). […] IC50 value between >0.5 μM and ≤1.0 μM is indicated by four stars (****). An IC50 value ≤0.5 μM is indicated by five stars (*****).
(Quantitative PCR measures a nucleic acid by following its amplification.)

Molecules are shown by their SMILES. Some results are limits rather than exact numbers.

The term IC50 denotes the concentration that gives 50% inhibition. Turning to `Cc1c(C[C@H](C)N)sc2c(NCc3ncccc3F)nc(Cl)nc12` [Cpd 59, 6-[(2S)-2-aminopropyl]-2-chloro-N-[(3-fluoropyridin-2-yl)methyl]-7-methylthieno[3,2-d]pyrimidin-4-amine], the IC50 in assay [1] fell in the range of 1500 to 2000 nM; in assay [2] it was 1000 to 1500 nM.
Turning to `Cc1c(C[C@H](C)N)sc2c(NCc3cccnc3F)nc(Cl)nc12` [Cpd 60, 6-[(2S)-2-aminopropyl]-2-chloro-N-[(2-fluoropyridin-3-yl)methyl]-7-methylthieno[3,2-d]pyrimidin-4-amine], the IC50 in assay [1] is > 2000 nM; in assay [2], 2000 to 3000 nM.
In the same order, the values of `CC[C@H](N)Cc1sc2c(NCc3ccns3)nc(Cl)nc2c1C` [Cpd 62, 6-[(2S)-2-aminobutyl]-2-chloro-7-methyl-N-[(1,2-thiazol-5-yl)methyl]thieno[3,2-d]pyrimidin-4-amine] are ≤ 500 nM and ≤ 500 nM.
As to `Cc1c(C[C@H](C)N)sc2c(NCc3c(F)cncc3F)nc(Cl)nc12` [Cpd 64, 6-[(2S)-2-aminopropyl]-2-chloro-N-[(3,5-difluoropyridin-4-yl)methyl]-7-methylthieno[3,2-d]pyrimidin-4-amine], the IC50 is 1000 to 1500 nM in assay [1] and 500 to 1000 nM in assay [2].
On to `Cc1c(C[C@H](C)CO)sc2c(NCc3ccco3)nc(Cl)nc12` [Cpd 66, (2S)-3-(2-chloro-4-{[(furan-2-yl)methyl]amino}-7-methylthieno[3,2-d]pyrimidin-6-yl)-2-methylpropan-1-ol], for which, in assay [1], the “IC50 (average, total ATXN3 protein)” value is “inactive”. Moreover, in assay [2], the “IC50 (exon 4 skipping in ATXN3 pre-mRNA)” value was “inactive”.
Regarding `Cc1c(CCCN)sc2c(NCc3ccco3)nc(Cl)nc12` [Cpd 67, 6-(3-aminopropyl)-2-chloro-N-[(furan-2-yl)methyl]-7-methylthieno[3,2-d]pyrimidin-4-amine], the “IC50 (average, total ATXN3 protein)” value in assay [1] was “inactive”. The “IC50 (exon 4 skipping in ATXN3 pre-mRNA)” value in assay [2] was “inactive”.
For `C[C@H](N)Cc1sc2c(NCc3ccncc3F)nc(Cl)nc2c1Br` [Cpd 68, 6-[(2S)-2-aminopropyl]-7-bromo-2-chloro-N-[(3-fluoropyridin-4-yl)methyl]thieno[3,2-d]pyrimidin-4-amine], the IC50 in assay [1] and in assay [2] was ≤ 500 nM each time.
Take `Cc1c(C[C@H](C)CN)sc2c(NCc3ccco3)nc(Cl)nc12` [Cpd 70, 6-[(2S)-3-amino-2-methylpropyl]-2-chloro-N-[(furan-2-yl)methyl]-7-methylthieno[3,2-d]pyrimidin-4-amine]: the figures for the IC50 in assay [1] and in assay [2] were 1000 to 1500 nM and 500 to 1000 nM, respectively.
As for `Cc1c(C[C@@H](C)CN)sc2c(NCc3ccco3)nc(Cl)nc12` [Cpd 72, 6-[(2R)-3-amino-2-methylpropyl]-2-chloro-N-[(furan-2-yl)methyl]-7-methylthieno[3,2-d]pyrimidin-4-amine], the IC50 was > 2000 nM in assay [1] and 1500 to 2000 nM in assay [2].
Consider `Cc1c(C[C@H](C)N)sc2c(NCc3ncc[nH]3)nc(Cl)nc12` [Cpd 73, 6-[(2S)-2-aminopropyl]-2-chloro-N-[(1H-imidazol-2-yl)methyl]-7-methylthieno[3,2-d]pyrimidin-4-amine], for which the “IC50 (average, total ATXN3 protein)” value in assay [1] is “inactive”. Moreover, the “IC50 (exon 4 skipping in ATXN3 pre-mRNA)” value in assay [2] was “inactive”.
Turning to `Cc1c(C[C@H](C)N)sc2c(NCc3cncs3)nc(Cl)nc12` [Cpd 74, 6-[(2S)-2-aminopropyl]-2-chloro-7-methyl-N-[(1,3-thiazol-5-yl)methyl]thieno[3,2-d]pyrimidin-4-amine], the results for the IC50 in assay [1] and in assay [2] were 1500 to 2000 nM and 1000 to 1500 nM, respectively.
Take `Cc1c(C[C@H](C)N)sc2c(NCc3cnco3)nc(Cl)nc12` [Cpd 75, 6-[(2S)-2-aminopropyl]-2-chloro-7-methyl-N-[(1,3-oxazol-5-yl)methyl]thieno[3,2-d]pyrimidin-4-amine]: the IC50 fell in the range of 1000 to 1500 nM in assay [1] and 500 to 1000 nM in assay [2].
As to `CCc1c(C[C@H](C)N)sc2c(NCc3ccco3)nc(Cl)nc12` [Cpd 77, 6-[(2S)-2-aminopropyl]-2-chloro-7-ethyl-N-[(furan-2-yl)methyl]thieno[3,2-d]pyrimidin-4-amine], the concentration for half-maximal inhibition (IC50) in assay [1] and in assay [2] was ≤ 500 nM throughout.
For `Cc1c(C[C@H](C)NC2CCC2)sc2c(NCc3ccco3)nc(Cl)nc12` [Cpd 78, 2-chloro-6-[(2S)-2-(cyclobutylamino)propyl]-N-[(furan-2-yl)methyl]-7-methylthieno[3,2-d]pyrimidin-4-amine], the IC50 is 1500 to 2000 nM in assay [1] and 1000 to 1500 nM in assay [2].
Turning to `Clc1nc(NCc2cccs2)c2scc(Br)c2n1` [Cpd 80, 7-bromo-2-chloro-N-[(thiophen-2-yl)methyl]thieno[3,2-d]pyrimidin-4-amine], the “IC50 (average, total ATXN3 protein)” value in assay [1] was “inactive”. Also, the “IC50 (exon 4 skipping in ATXN3 pre-mRNA)” value in assay [2] is “inactive”.
On to `Cc1c(C[C@H](C)N)sc2c(NCc3ccnn3C)nc(Cl)nc12` [Cpd 81, 6-[(2S)-2-aminopropyl]-2-chloro-7-methyl-N-[(1-methyl-1H-pyrazol-5-yl)methyl]thieno[3,2-d]pyrimidin-4-amine], for which, in assay [1], the “IC50 (average, total ATXN3 protein)” value is “inactive”. In addition, the “IC50 (exon 4 skipping in ATXN3 pre-mRNA)” value in assay [2] is “inactive”.
For the compound `C[C@H](N)Cc1sc2c(NCc3cccs3)nc(Cl)nc2c1Br` [Cpd 82, 6-[(2S)-2-aminopropyl]-7-bromo-2-chloro-N-[(thiophen-2-yl)methyl]thieno[3,2-d]pyrimidin-4-amine], the IC50 in assay [1] and in assay [2] was ≤ 500 nM throughout.
Take `C[C@H](N)Cc1sc2c(NCc3cccs3)nc(Cl)nc2c1C1CC1` [Cpd 86, 6-[(2S)-2-aminopropyl]-2-chloro-7-cyclopropyl-N-[(thiophen-2-yl)methyl]thieno[3,2-d]pyrimidin-4-amine]: the IC50 in assay [1] and in assay [2] was ≤ 500 nM in each case.
Consider `C[C@H](N)Cc1sc2c(NCc3cccs3)nc(Cl)nc2c1-c1ccc(Cl)cc1` [Cpd 88, 6-[(2S)-2-aminopropyl]-2-chloro-7-(4-chlorophenyl)-N-[(thiophen-2-yl)methyl]thieno[3,2-d]pyrimidin-4-amine], for which the “IC50 (average, total ATXN3 protein)” value in assay [1] is “inactive”. Besides, the “IC50 (exon 4 skipping in ATXN3 pre-mRNA)” value in assay [2] is “inactive”.
Consider `Cc1c(C[C@H](C)N)sc2c(NCc3sccc3F)nc(Cl)nc12` [Cpd 90, 6-[(2S)-2-aminopropyl]-2-chloro-N-[(3-fluorothiophen-2-yl)methyl]-7-methylthieno[3,2-d]pyrimidin-4-amine], for which the IC50 in assay [1] and in assay [2] was ≤ 500 nM in each case.
On to `Cc1c(C[C@H](C)N)sc2c(NCc3nc(F)cs3)nc(Cl)nc12` [Cpd 92, 6-[(2S)-2-aminopropyl]-2-chloro-N-[(4-fluoro-1,3-thiazol-2-yl)methyl]-7-methylthieno[3,2-d]pyrimidin-4-amine], for which the IC50 in assay [1] and in assay [2] was ≤ 500 nM throughout.

For the origin of these results see US20240043444A1, “METHODS FOR TREATING SPINOCEREBELLAR ATAXIA TYPE 3” (PTC Therapeutics, Inc., priority 2021, published 2024).
